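Method: 48-hour compound exposure of cells in 96-well plates, five concentrations, linear interpolation of endpoints. Definition used: TGI = concentration required for complete inhibition of growth.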
Assays:
Assay in all cases: NCI tumour cell line growth inhibition, 48 h
SF-268 CNS = system: SF-268 CNS
BT-549 breast = system: BT-549 breast
MDA-N = system: MDA-N
SK-MEL-28 melanoma = system: SK-MEL-28 melanoma
SW-620 colon = system: SW-620 colon
NCI-H23 lung = system: NCI-H23 lung
HOP-92 NSCLC = system: HOP-92 NSCLC
OVCAR-3 ovarian = system: OVCAR-3 ovarian
HS 578T breast = system: HS 578T breast
SNB-19 CNS = system: SNB-19 CNS
MCF7 breast = system: MCF7 breast
K-562 leukemia = system: K-562 leukemia
HT29 colon = system: HT29 colon
KM12 colon = system: KM12 colon
SN12C renal = system: SN12C renal
T-47D breast = system: T-47D breast
U251 CNS = system: U251 CNS
LOX IMVI melanoma = system: LOX IMVI melanoma
SK-MEL-5 melanoma = system: SK-MEL-5 melanoma
TK-10 renal = system: TK-10 renal
HCT-15 colon = system: HCT-15 colon
NCI/ADR-RES ovarian = system: NCI/ADR-RES ovarian
OVCAR-8 ovarian = system: OVCAR-8 ovarian
EKVX NSCLC = system: EKVX NSCLC
CCRF-CEM leukemia = system: CCRF-CEM leukemia
A498 renal = system: A498 renal
MDA-MB-231 breast = system: MDA-MB-231 breast
UACC-257 melanoma = system: UACC-257 melanoma
MDA-MB-435 = system: MDA-MB-435
OVCAR-4 ovarian = system: OVCAR-4 ovarian
PC-3 prostate = system: PC-3 prostate
NCI-H522 lung = system: NCI-H522 lung
NCI-H226 lung = system: NCI-H226 lung
SK-MEL-2 melanoma = system: SK-MEL-2 melanoma
MOLT-4 leukemia = system: MOLT-4 leukemia
UACC-62 melanoma = system: UACC-62 melanoma
786-0 renal = system: 786-0 renal
COLO 205 colon = system: COLO 205 colon
M14 melanoma = system: M14 melanoma
SF-539 CNS = system: SF-539 CNS
A549 NSCLC = system: A549 NSCLC
CAKI-1 renal = system: CAKI-1 renal
HCT-116 colon = system: HCT-116 colon
MALME-3M melanoma = system: MALME-3M melanoma
SF-295 CNS = system: SF-295 CNS
RXF 393 renal = system: RXF 393 renal
HOP-62 NSCLC = system: HOP-62 NSCLC
RPMI-8226 leukemia = system: RPMI-8226 leukemia
DU-145 prostate = system: DU-145 prostate
IGROV1 ovarian = system: IGROV1 ovarian
ACHN renal = system: ACHN renal
OVCAR-5 ovarian = system: OVCAR-5 ovarian
HL-60(TB) leukemia = system: HL-60(TB) leukemia
UO-31 renal = system: UO-31 renal
SK-OV-3 ovarian = system: SK-OV-3 ovarian
NCI-H460 lung = system: NCI-H460 lung
HCC-2998 colon = system: HCC-2998 colon
SNB-75 CNS = system: SNB-75 CNS
SR leukemia = system: SR leukemia

Measured: TGI

CC(=O)O[C@H]1CC[C@@H](OC(C)=O)[C@H]2[C@H](O)[C@H](O)[C@@H]1n1c(=O)n(-c3ccccc3)c(=O)n12
not listed: SK-OV-3 ovarian | NCI-H460 lung | HCC-2998 colon | SNB-75 CNS | SR leukemia
> 100 µM: all other assays above

Cc1nc(C(=Nc2ccc(Br)cc2)Nn2cnnc2)no1
not listed: SF-268 CNS | SN12C renal | LOX IMVI melanoma | TK-10 renal | NCI-H226 lung | SF-539 CNS | HL-60(TB) leukemia | SR leukemia
> 100 µM: all other assays above

O=C(O)CCCc1ccc2c(c1)C(C(=O)O)CC2 (stereo not drawn)
not listed: HOP-92 NSCLC | OVCAR-3 ovarian | A498 renal | MDA-MB-435
> 100 µM: all other assays above

CCc1c(O)nc(Nc2nc3ccccc3[nH]2)[nH]c1=O
not listed: KM12 colon | T-47D breast | EKVX NSCLC | MOLT-4 leukemia | CAKI-1 renal | RPMI-8226 leukemia
> 100 µM: all other assays above
